Laboratory results: PMC4569058, “High-Throughput Screening for Ligands of the HEPN Domain of Sacsin” (PLoS ONE, 2015)
“And” between values parts separate entries of the source, which are not always exact repeats. Equal values may be shown once.

Tests used:
Assay type in all cases: binding
[1] = biological target: T1, HEPN domain of sacsin (GST-HEPN) (Homo sapiens, UniProt Q9NZJ4); assay: FP titration assay (fluorescent ATP probe vs GST-HEPN); conditions: for Kd: 20 mM Bis-tris pH 6.50, 100 mM NaCl
T1 construct: The HEPN domain (residues 4441–4579) was purified as in Kozlov et al; made in house; host or cells: E. coli BL21
T1 sequence (Q9NZJ4 4441-4579): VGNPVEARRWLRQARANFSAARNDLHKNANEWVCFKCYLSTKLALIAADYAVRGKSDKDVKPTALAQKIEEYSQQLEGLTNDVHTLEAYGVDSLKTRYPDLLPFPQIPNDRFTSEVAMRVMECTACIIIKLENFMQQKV
Procedure: N-methylanthraniloyl 8[(4-amino)butyl]-amino-ATP (MABA-ATP) and fluorescein-12-ATP (F12-ATP) were purchased from Jena Bioscience and PerkinElmer, respectively. The excitation and emission wavelengths of MABA-ATP were reported to be 335 nm and 440 nm, and those of F12-ATP were reported to be 496 nm and 517 nm by the commercial suppliers. The optimal excitation and emission wavelengths were determined under FP assay conditions using 0.2 μM MABA-ATP and 3.3 nM F12-ATP in 100 mM NaCl, 20 mM Bis-tris, pH 6.5.
(§1) A fixed concentration of the probe (0.5 μM MABA-ATP or 5 nM F12-ATP) was put in each well followed by a serial dilution of GST-HEPN starting at 10 μM. The assay was conducted in 20 mM Bis-tris pH 6.50 and 100 mM NaCl and the final volume in each well was 100 μl. The total fluorescence and fluorescence polarization signals of each well were recorded on a SpectraMax M5e Microplate Reader at the optimal excitation and emission wavelengths of the probes. A titration curve was generated by plotting the fluorescence polarization signals as milli-polarization units (mP) against a log scale of GST-HEPN concentration (μM).

GST = GST (Schistosoma japonicum, UniProt P08515); assay: GST control FP titration; conditions: 0.5 μM MABA-ATP or 5 nM F12-ATP titrated against GST
GST, sequence (P08515 whole entry): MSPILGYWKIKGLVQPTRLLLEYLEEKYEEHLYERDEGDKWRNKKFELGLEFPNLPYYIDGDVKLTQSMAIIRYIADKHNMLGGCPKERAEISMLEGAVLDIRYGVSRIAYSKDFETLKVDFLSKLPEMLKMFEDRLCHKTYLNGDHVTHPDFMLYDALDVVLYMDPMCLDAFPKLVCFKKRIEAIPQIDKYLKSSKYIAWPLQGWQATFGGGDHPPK
Procedure: as §1
Supplementary file pone.0137298.s002.tif: S2 Fig GST control titration. 0.5 μM MABA-ATP and 5 nM F12-ATP were titrated against various concentrations of GST to verify whether GST contributes to the observed FP signal in the presence of GST-HEPN. […] (TIF) Click here for additional data file.

[2] = biological target: T2, 15N-HEPN (sacsin HEPN domain) (Homo sapiens, UniProt Q9NZJ4); assay: 1H-15N HSQC NMR titration; conditions: 100-400 μM 15N-HEPN, 20 mM Bis-tris pH 6.50, 70 mM NaCl, 303 K
T2 construct: The HEPN domain (residues 4441–4579) was purified as in Kozlov et al; GST (N, cleaved yes); made in house; host or cells: E. coli BL21 (M9 minimal medium with 15NH4Cl)
T2 sequence (Q9NZJ4 4441-4579): T1 sequence (Q9NZJ4 4441-4579)
Procedure: Between 100 μM and 400 μM ^15N-HEPN were used for NMR titration experiments. Heteronuclear single quantum correlation (HSQC) spectra were acquired in 20 mM Bis-tris pH 6.50 and 70 mM NaCl at 303 K using Varian 800 MHz or Bruker 600 MHz NMR spectrometers. The data were processed by NMRPipe. NMR spectra were then generated and analyzed by NMRView. The 2D HSQC spectra were overlaid with previously assigned spectrum of HEPN. The combined chemical shift perturbations in the ^1H and ^15N dimensions of each peak, calculated as (ΔδH ^2 + (0.2 × ΔδN)^2)^0.5, were plotted against the residue number.

[3] = biological target: T1, HEPN domain of sacsin (GST-HEPN); assay: FP competition assay (displacement of F12-ATP from GST-HEPN)
Procedure: […] The probe concentration was chosen to be the minimum concentration required to generate a sigmoidal binding curve. […] Next, a serial dilution of the competitor compounds (nucleotides and nucleotide analogs) starting at 10 mM were added. The fluorescence polarization signal in each well was measured on a SpectraMax M5e Microplate Reader.

[4] = HTS hit confirmation, 5 nM F12-ATP and 200 nM GST-HEPN, read-out: Binding Affinity for HEPN
[5] = 5 nM F12-ATP and 120 nM GST-HEPN, read-out: affinity for GST-HEPN estimated from FP competition curve, Kd

Molecule | binding to HEPN observed by NMR (chemical shift perturbations) [2] | Kd [3, 5] | also measured
CNc1ccccc1C(=O)NCCCCNc1nc2c(N)ncnc2n1[C@@H]1O[C@H](COP(=O)(O)OP(=O)(O)OP(=O)(O)O)[C@@H](O)[C@H]1O [MABA-ATP, N-methylanthraniloyl 8[(4-amino)butyl]-amino-ATP] |  |  | Kd ([1]; 0.5 μM MABA-ATP titrated against GST-HEPN, read-out: binding affinity of the probe estimated from the titration curve): ~3 µM and 3 µM; binding of probe to GST alone (GST): did not show binding
O=c1c(C(c2ccc3c(c2)OCO3)c2c(O)nc3n(c2=O)CCS3)c(O)nc2n1CCS2 [AN670] | Binding was observed by NMR |  | fold higher affinity than the other two HTS hits AK968 and AN652 [3]: two- to three-fold; Kd [3, 4]: 1.1 µM
Nc1ncnc2c1ncn2C1OC(COP(=O)(O)OP(=O)(O)OCC2OC(O)C(O)C2O)C(O)C1O (stereo not drawn) [ADP-ribose, adenosine 5´-diphosphoribose] |  | 205 µM | 
O=C(Nc1cccc2c(=O)[nH][nH]c(=O)c12)c1ccc(=O)oc1 [AN652] | Binding was observed by NMR |  | Kd [3, 4]: 2.8 µM
O=C(OCCCl)Oc1c(Br)cc2sc(=O)oc2c1Br [AG205] |  |  | Kd [3, 4]: 9.4 µM
fluorescein-12-ATP [F12-ATP] | interacts with all HEPN residues involved in GTP-binding |  | Kd ([1]; 5 nM F12-ATP titrated against GST-HEPN, read-out: binding affinity of the probe estimated from the titration curve (KD1)): 0.078 µM and ~0.078 µM; fold decrease in affinity upon the addition of MgCl2 ([1]; F12-ATP vs GST-HEPN titration in the presence of 1 mM MgCl2 compared to without MgCl2): 10 fold; binding of probe to GST alone (GST): did not show binding; fold higher affinity relative to ATP [3]: 65 fold
Nc1nc2c(ncn2[C@@H]2O[C@H](COP(=O)(O)OP(=O)(O)OP(=O)(O)OP(=O)(O)OC[C@H]3O[C@@H](n4cnc5c(=O)[nH]c(N)nc54)[C@H](O)[C@@H]3O)[C@@H](O)[C@H]2O)c(=O)[nH]1 [Gp4G, p1, p4-di(guanosine-5´) tetraphosphate] |  | 1.23 µM | 
Nc1nc2c(ncn2[C@@H]2O[C@H](COP(=O)(O)OP(=O)(O)OP(=O)(O)OP(=O)(O)O)[C@@H](O)[C@H]2O)c(=O)[nH]1 [G-tetra-P, guanosine 5´-tetraphosphate] | Changes in chemical shifts were observed for most GTP-binding residues | 0.47 µM | fold higher affinity for HEPN than GTP [3]: about two-fold
CC(C)(COP(=O)(O)OP(=O)(O)OC[C@H]1O[C@@H](n2cnc3c(N)ncnc32)[C@H](O)[C@@H]1OP(=O)(O)O)[C@@H](O)C(=O)NCCC(=O)NCCS [CoA, coenzyme A] |  | 5.2 µM | 
O=C(O)CN(CCN(CC(=O)O)CC(=O)O)CC(=O)O [EDTA] | interacts with GTP- and malonate ion-binding site | ~510 µM and 510 µM | fold weaker affinity than GTP [3]: ~ 500 fold
Nc1nc2c(ncn2[C@@H]2O[C@H](COP(=O)(O)OP(=O)(O)OP(=O)(O)O)[C@@H](O)[C@H]2O)c(=O)[nH]1 [GTP, guanosine 5´-triphosphate] | binds to HEPN at its dimerization surface | 0.81 µM | fold higher affinity relative to ATP [3]: approximately 6 fold
Nc1ncnc2c1ncn2[C@@H]1O[C@H](COP(=O)(O)OP(=O)(O)OP(=O)(O)OC[C@H]2O[C@@H](n3cnc4c(N)ncnc43)[C@H](O)[C@@H]2O)[C@@H](O)[C@H]1O [Ap3A, p1, p3-di(adenosine-5´) triphosphate] |  | 51.2 µM | 
Cc1ccccc1NS(=O)(=O)c1ccc(NC(=O)c2n[nH]c([N+](=O)[O-])c2Br)cc1 [AK968] | Binding was observed by NMR |  | Kd [3, 4]: 2.1 µM
Nc1ncnc2c1ncn2[C@@H]1O[C@H](COP(=O)(O)OP(=O)(O)O)[C@@H](O)[C@H]1O [ADP, adenosine 5´-diphosphate] |  | 19.2 µM | 
Nc1nc2c(ncn2[C@@H]2O[C@H](COP(=O)(O)OP(=O)(O)O)[C@@H](O)[C@H]2O)c(=O)[nH]1 [GDP, guanosine 5´-diphosphate] |  | 1.23 µM | 
Nc1ncnc2c1ncn2[C@@H]1O[C@H](COP(=O)(O)OP(=O)(O)OP(=O)(O)OP(=O)(O)OC[C@H]2O[C@@H](n3cnc4c(N)ncnc43)[C@H](O)[C@@H]2O)[C@@H](O)[C@H]1O [Ap4A, p1,-p4-di(adenosine-5´) tetraphosphate] |  | 20.5 µM | 
O=P(O)(O)OC1C(OP(=O)(O)O)C(OP(=O)(O)O)C(OP(=O)(O)O)C(OP(=O)(O)O)C1OP(=O)(O)O (stereo not drawn) [IP6, phytic acid/myo-inositol hexakis(dihydrogen phosphate)] |  | 8.46 µM | 
Nc1ncnc2c1ncn2[C@@H]1O[C@H](COP(=O)(O)O)[C@@H](O)[C@H]1O [AMP, adenosine 5´-monophosphate] |  | 102 µM | 
